From article PMC5948155 (ACS infectious diseases, 2018)
Structures can show the parent of a compound that is named as a salt.

Tests used:
Format in all cases: cell-based
[1] = molecular target: T1, Maackia amurensis lectin I (MAL I) (Maackia amurensis, UniProt P0DKL3)
T1 sequence (P0DKL3 30-287): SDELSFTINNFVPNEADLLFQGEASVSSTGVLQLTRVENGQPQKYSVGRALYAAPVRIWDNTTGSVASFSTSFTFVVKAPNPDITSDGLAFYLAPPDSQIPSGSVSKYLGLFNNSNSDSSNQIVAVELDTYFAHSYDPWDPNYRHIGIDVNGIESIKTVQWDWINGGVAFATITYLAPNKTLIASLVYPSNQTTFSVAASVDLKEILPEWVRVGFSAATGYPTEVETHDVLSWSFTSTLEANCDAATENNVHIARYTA

[2] = molecular target: T2, cholera toxin subunit B (CTB) (Vibrio cholerae serotype O1, UniProt P01556)
[3] = molecular target: T2, cholera toxin subunit B (CTB); assay: cell-based
[4] = molecular target: Sambucus nigra lectin (SNA) (Sambucus nigra, UniProt Q41358)
Sequence of Sambucus nigra lectin (SNA) (Q41358 309-570 limits assumed): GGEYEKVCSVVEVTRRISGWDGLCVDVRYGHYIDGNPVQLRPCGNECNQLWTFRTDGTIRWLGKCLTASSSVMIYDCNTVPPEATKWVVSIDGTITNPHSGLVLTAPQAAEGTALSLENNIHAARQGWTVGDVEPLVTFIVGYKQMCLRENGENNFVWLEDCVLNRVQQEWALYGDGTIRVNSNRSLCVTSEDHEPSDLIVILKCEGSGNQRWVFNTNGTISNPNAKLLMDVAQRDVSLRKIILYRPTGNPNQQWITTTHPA
Sequence of Sambucus nigra lectin (SNA) (Q41358 29-292 partner limits assumed): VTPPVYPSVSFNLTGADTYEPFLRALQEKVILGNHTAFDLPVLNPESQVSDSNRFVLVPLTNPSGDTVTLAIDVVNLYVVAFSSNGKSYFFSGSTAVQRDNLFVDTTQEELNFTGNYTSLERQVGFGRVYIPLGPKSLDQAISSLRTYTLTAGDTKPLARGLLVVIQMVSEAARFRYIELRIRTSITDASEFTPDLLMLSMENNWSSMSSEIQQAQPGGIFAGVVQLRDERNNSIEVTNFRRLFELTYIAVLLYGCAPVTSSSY

T2 sequence (P01556 22-124 limits assumed): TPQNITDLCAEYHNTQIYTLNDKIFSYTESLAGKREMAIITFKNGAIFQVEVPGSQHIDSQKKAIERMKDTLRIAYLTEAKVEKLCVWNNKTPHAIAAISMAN

SMILES	Inhibition of MAL I binding (in words) [1]	Inhibition of CTB binding to T84 cells (in words) [2]	Inhibition of CTB binding to Colo205 cells (in words) [3]	Inhibition of SNA binding (in words) [4]
CC(=O)N[C@H]1[C@H]([C@H](O)[C@H](O)CO)O[C@@](O[C@H]2[C@@H](O)[C@@H](CO)O[C@@H](O[C@H]3[C@H](O)[C@@H](O)C(O)O[C@@H]3CO)[C@@H]2O)(C(=O)O)C[C@@H]1O (stereo partly drawn) [3′-SL, 3′-Sialyllactose sodium salt]	enhance the inhibitory potential of lactose	no inhibition	no inhibition	
CC(=O)N[C@H]1[C@H]([C@H](O)[C@H](O)CO)O[C@@](OC[C@H]2O[C@@H](O[C@H]3[C@H](O)[C@@H](O)[C@H](O)O[C@@H]3CO)[C@H](O)[C@@H](O)[C@H]2O)(C(=O)O)C[C@@H]1O [6′-SL, 6′-Sialyllactose sodium salt]		no inhibition	no inhibition	enhance the inhibitory potential of lactose
